Experimental data: ChEMBL document CHEMBL3763135, “Synthesis and evaluation of thiophene-based guanylhydrazones (iminoguanidines) efficient against panel of voriconazole-resistant fungal isolates” (Bioorg Med Chem, 2016)
Calls of active or inactive are those of the source. The rule behind the calls is not given here.

Columns and labels:
[1] = test system: Trichophyton mentagrophytes; assay: Antifungal activity against Trichophyton mentagrophytes DMT4 by broth dilution method; format: functional
Danio rerio [2] = organism: Danio rerio; assay: Toxicity against zebrafish embryo assessed as effect on notochord at 5 ug/ml measured at 96 hrs post fertilization by inverted microscopic analysis; format: organism-based; conditions: in vivo
[3] = Toxicity against zebrafish embryo assessed as dead embryos at 10 ug/ml measured at 96 hrs post fertilization by inverted microscopic analysis; format: organism-based, Danio rerio; conditions: read-out: Activity
Danio rerio [4] = organism: Danio rerio; assay: Toxicity against zebrafish embryo assessed as normal embryos at 25 ug/ml measured at 96 hrs post fertilization by inverted microscopic analysis; format: organism-based; conditions: in vivo
Danio rerio [5] = organism: Danio rerio; assay: Toxicity against zebrafish embryo assessed as effect on eyes at 5 ug/ml measured at 96 hrs post fertilization by inverted microscopic analysis; format: organism-based; conditions: in vivo
Danio rerio [6] = organism: Danio rerio; assay: Toxicity against zebrafish embryo assessed as unhatched embryos at 5 ug/ml measured at 96 hrs post fertilization by inverted microscopic analysis; format: organism-based; conditions: in vivo
Danio rerio [7] = organism: Danio rerio; assay: Toxicity against zebrafish embryo assessed as unhatched embryos at 2.5 ug/ml measured at 96 hrs post fertilization by inverted microscopic analysis; format: organism-based; conditions: in vivo
Danio rerio [8] = organism: Danio rerio; assay: Toxicity against zebrafish embryo assessed as head malformation at 2.5 ug/ml measured at 96 hrs post fertilization by inverted microscopic analysis; format: organism-based; conditions: in vivo
Candida albicans [9] = assay: Antifungal activity against Candida albicans CA5 assessed as fungal growth at sub-MIC measured after 24 hrs by time-kill dependence-based spectrophotometric analysis relative to DMSO control; format: functional, organism-based
Pichia kudriavzevii [10] = assay: Antifungal activity against Candida krusei ATCC 34135 by broth dilution method; format: functional
Danio rerio [11] = assay: Toxicity against zebrafish embryo assessed as pericardial edema at 10 ug/ml measured at 96 hrs post fertilization by inverted microscopic analysis; format: organism-based; conditions: in vivo
Candida parapsilosis = assay: Antifungal activity against Candida parapsilosis C27 by broth dilution method; format: functional; conditions: Lodderomyces parapsilosis
Danio rerio [12] = organism: Danio rerio; assay: Toxicity against zebrafish embryo assessed as effect on otoliths at 10 ug/ml measured at 96 hrs post fertilization by inverted microscopic analysis; format: organism-based; conditions: in vivo
Danio rerio [13] = organism: Danio rerio; assay: Toxicity against zebrafish embryo assessed as teratogenic embryos at 5 ug/ml measured at 96 hrs post fertilization by inverted microscopic analysis; format: organism-based; conditions: in vivo
Danio rerio [14] = organism: Danio rerio; assay: Toxicity against zebrafish embryo assessed as growth retardation at 10 ug/ml measured at 96 hrs post fertilization by inverted microscopic analysis; format: organism-based; conditions: in vivo
Danio rerio [15] = organism: Danio rerio; assay: Toxicity against zebrafish embryo assessed as skeletal deformities at 5 ug/ml measured at 96 hrs post fertilization by inverted microscopic analysis; format: organism-based; conditions: in vivo
Danio rerio [16] = organism: Danio rerio; assay: Toxicity against zebrafish embryo assessed as effect on blood circulation at 5 ug/ml measured at 96 hrs post fertilization by inverted microscopic analysis; format: organism-based; conditions: in vivo
Danio rerio [17] = organism: Danio rerio; assay: Toxicity against zebrafish embryo assessed as effect on notochord at 2.5 ug/ml measured at 96 hrs post fertilization by inverted microscopic analysis; format: organism-based; conditions: in vivo
Candida albicans [18] = assay: Induction of DNA intercalation with Candida albicans genomic DNA at 25 ug/ml after 12 hrs by ethidium bromide staining based gel electrophoresis method
Danio rerio [19] = organism: Danio rerio; assay: Toxicity against zebrafish embryo assessed as unhatched embryos at 10 ug/ml measured at 96 hrs post fertilization by inverted microscopic analysis; format: organism-based; conditions: in vivo
Danio rerio [20] = organism: Danio rerio; assay: Toxicity against zebrafish embryo assessed as effect on eyes at 10 ug/ml measured at 96 hrs post fertilization by inverted microscopic analysis; format: organism-based; conditions: in vivo
Danio rerio [21] = organism: Danio rerio; assay: Toxicity against zebrafish embryo assessed as effect on otoliths at 2.5 ug/ml measured at 96 hrs post fertilization by inverted microscopic analysis; format: organism-based; conditions: in vivo
Danio rerio [22] = organism: Danio rerio; assay: Toxicity against zebrafish embryo assessed as effect on tail tip at 2.5 ug/ml measured at 96 hrs post fertilization by inverted microscopic analysis; format: organism-based; conditions: in vivo
[23] = Toxicity against zebrafish embryo assessed as dead embryos at 2.5 ug/ml measured at 96 hrs post fertilization by inverted microscopic analysis; format: organism-based, Danio rerio; conditions: read-out: Activity
Danio rerio [24] = organism: Danio rerio; assay: Toxicity against zebrafish embryo assessed as effect on blood circulation at 10 ug/ml measured at 96 hrs post fertilization by inverted microscopic analysis; format: organism-based; conditions: in vivo
Fusarium oxysporum = assay: Antifungal activity against Fusarium oxysporum AB18 by broth dilution method; format: functional
[25] = Toxicity against zebrafish embryo assessed as dead embryos at 50 ug/ml measured at 96 hrs post fertilization by inverted microscopic analysis; format: organism-based, Danio rerio; conditions: read-out: Activity
Danio rerio [26] = organism: Danio rerio; assay: Toxicity against zebrafish embryo assessed as skeletal deformities at 10 ug/ml measured at 96 hrs post fertilization by inverted microscopic analysis; format: organism-based; conditions: in vivo
Danio rerio [27] = organism: Danio rerio; assay: Toxicity against zebrafish embryo assessed as effect on heart beat at 2.5 ug/ml measured at 96 hrs post fertilization by inverted microscopic analysis; format: organism-based; conditions: in vivo
Danio rerio [28] = organism: Danio rerio; assay: Toxicity against zebrafish embryo assessed as skeletal deformities at 2.5 ug/ml measured at 96 hrs post fertilization by inverted microscopic analysis; format: organism-based; conditions: in vivo
Danio rerio [29] = organism: Danio rerio; assay: Toxicity against zebrafish embryo assessed as effect on heart beat at 5 ug/ml measured at 96 hrs post fertilization by inverted microscopic analysis; format: organism-based; conditions: in vivo
Candida albicans [30] = assay: Antifungal activity against Candida albicans ATCC 10231 by broth dilution method; format: functional
Danio rerio [31] = assay: Toxicity against zebrafish embryo assessed as pericardial edema at 5 ug/ml measured at 96 hrs post fertilization by inverted microscopic analysis; format: organism-based; conditions: in vivo
Danio rerio [32] = organism: Danio rerio; assay: Toxicity against zebrafish embryo assessed as head malformation at 5 ug/ml measured at 96 hrs post fertilization by inverted microscopic analysis; format: organism-based; conditions: in vivo
Microsporum canis = assay: Antifungal activity against Microsporum canis DMT2 by broth dilution method; format: functional
Danio rerio [33] = organism: Danio rerio; assay: Toxicity against zebrafish embryo assessed as teratogenic embryos at 25 ug/ml measured at 96 hrs post fertilization by inverted microscopic analysis; format: organism-based; conditions: in vivo
Danio rerio [34] = organism: Danio rerio; assay: Toxicity against zebrafish embryo assessed as effect on tail tip at 10 ug/ml measured at 96 hrs post fertilization by inverted microscopic analysis; format: organism-based; conditions: in vivo
Danio rerio [35] = organism: Danio rerio; assay: Toxicity against zebrafish embryo assessed as growth retardation at 2.5 ug/ml measured at 96 hrs post fertilization by inverted microscopic analysis; format: organism-based; conditions: in vivo
Candida albicans [36] = assay: Antibiofilm activity against Candida albicans assessed as inhibition of Spider medium-induced hyphae formation at sub-MIC after 24 hrs by propidium iodide and FITC-conjugated concanavaline A staining based fluorescence microscopy; format: functional, organism-based
Danio rerio [37] = organism: Danio rerio; assay: Toxicity against zebrafish embryo assessed as normal embryos at 2.5 ug/ml measured at 96 hrs post fertilization by inverted microscopic analysis; format: organism-based; conditions: in vivo
Aspergillus fumigatus = assay: Antifungal activity against Aspergillus fumigatus ATCC 13073 by broth dilution method; format: functional
[38] = Toxicity against zebrafish embryo assessed as dead embryos at 25 ug/ml measured at 96 hrs post fertilization by inverted microscopic analysis; format: organism-based, Danio rerio; conditions: read-out: Activity
Danio rerio [39] = organism: Danio rerio; assay: Toxicity against zebrafish embryo assessed as normal embryos at 5 ug/ml measured at 96 hrs post fertilization by inverted microscopic analysis; format: organism-based; conditions: in vivo
Danio rerio [40] = organism: Danio rerio; assay: Toxicity against zebrafish embryo assessed as effect on tail tip at 5 ug/ml measured at 96 hrs post fertilization by inverted microscopic analysis; format: organism-based; conditions: in vivo
Pichia kudriavzevii [41] = assay: Antibiofilm activity against Pichia kudriavzevii ATCC 34135 assessed as disruption of preformed biofilm after 24 hrs by concanavalin A-FITC-staining based fluorescence microscopic analysis; format: functional
Danio rerio [42] = organism: Danio rerio; assay: Toxicity against zebrafish embryo assessed as teratogenic embryos at 2.5 ug/ml measured at 96 hrs post fertilization by inverted microscopic analysis; format: organism-based; conditions: in vivo
Danio rerio [43] = organism: Danio rerio; assay: Toxicity against zebrafish embryo assessed as effect on notochord at 10 ug/ml measured at 96 hrs post fertilization by inverted microscopic analysis; format: organism-based; conditions: in vivo

Work on `Cl.N=C(N)N/N=C/c1ccc(-c2ccc(Br)cc2)s1` yielded an MIC [1] of 0.97 µg/mL, an Activity (Danio rerio [2]) of 0% and a mortality at 96 h, 10 ug/ml [3] of 30%. For the same compound, the Activity (Danio rerio [4]) was 0%, the Activity (Danio rerio [5]) was 0% and the Activity (Danio rerio [6]) was 0%. The Activity (Danio rerio [7]) was 0%, the Activity (Danio rerio [8]) was 0% and the Activity (Candida albicans [9]) was “inactive”. For the same compound, the MIC (Pichia kudriavzevii [10]) was 1.56 µg/mL, the Activity (Danio rerio [11]) was 33.33% and the MIC (Candida parapsilosis) was 3.9 µg/mL. The Activity (Danio rerio [12]) was 0%, the Activity (Danio rerio [13]) was 10% and the Activity (Danio rerio [14]) was 0%. The Activity (Danio rerio [15]) was 0%, the Activity (Danio rerio [16]) was 0% and the Activity (Danio rerio [17]) was 0%. The Activity (Candida albicans [18]) was “Active”, the Activity (Danio rerio [19]) was 0% and the Activity (Danio rerio [20]) was 0%. For the same compound, the Activity (Danio rerio [21]) was 0%, the Activity (Danio rerio [22]) was 0% and the mortality at 96 h, 2.5 ug/ml [23] was 0%. It also gave an Activity (Danio rerio [24]) of 0%, an MIC (Fusarium oxysporum) of 3.9 µg/mL and a mortality at 96 h, 50 ug/ml [25] of 100%. The Activity (Danio rerio [26]) was 0%, the Activity (Danio rerio [27]) was 0% and the Activity (Danio rerio [28]) was 0%. The Activity (Danio rerio [29]) was 0%, the MIC (Candida albicans [30]) was 3.12 µg/mL and the Activity (Danio rerio [31]) was 11.11%. It also gave an Activity (Danio rerio [32]) of 0%, an MIC (Microsporum canis) of 0.25 µg/mL and an Activity (Danio rerio [33]) of 26.67%. For the same compound, the Activity (Danio rerio [34]) was 0%, the Activity (Danio rerio [35]) was 0% and the Activity (Candida albicans [36]) was “Active”. The Activity (Danio rerio [37]) was 100%, the MIC (Aspergillus fumigatus) was 6.25 µg/mL and the mortality at 96 h, 25 ug/ml [38] was 73.3%. The Activity (Danio rerio [39]) was 80%, the Activity (Danio rerio [40]) was 0% and the MBEC (Pichia kudriavzevii [41]) was 125 µg/mL. The Activity (Danio rerio [42]) was 0% and the Activity (Danio rerio [43]) was 0%.
With `Cc1ccc(-c2ccc(/C=N/NC(=N)N)s2)cc1.Cl` the MIC [1] was 1.56 µg/mL, the Activity (Danio rerio [2]) was 0% and the mortality at 96 h, 10 ug/ml [3] was 50%. It also gave an Activity (Danio rerio [4]) of 0%, an Activity (Danio rerio [5]) of 0% and an Activity (Danio rerio [6]) of 0%. For the same compound, the Activity (Danio rerio [7]) was 0%, the Activity (Danio rerio [8]) was 0% and the Activity (Candida albicans [9]) was “inactive”. For the same compound, the MIC (Pichia kudriavzevii [10]) was 3.12 µg/mL, the Activity (Danio rerio [11]) was 100% and the MIC (Candida parapsilosis) was 3.9 µg/mL. For the same compound, the Activity (Danio rerio [12]) was 100%, the Activity (Danio rerio [13]) was 80% and the Activity (Danio rerio [14]) was 100%. For the same compound, the Activity (Danio rerio [15]) was 0%, the Activity (Danio rerio [16]) was 0% and the Activity (Danio rerio [17]) was 0%. The Activity (Candida albicans [18]) was “Active”, the Activity (Danio rerio [19]) was 0% and the Activity (Danio rerio [20]) was 100%. The Activity (Danio rerio [21]) was 0%, the Activity (Danio rerio [22]) was 0% and the mortality at 96 h, 2.5 ug/ml [23] was 10%. For the same compound, the Activity (Danio rerio [24]) was 0%, the MIC (Fusarium oxysporum) was 7.8 µg/mL and the mortality at 96 h, 50 ug/ml [25] was 100%. For the same compound, the Activity (Danio rerio [26]) was 6.67%, the Activity (Danio rerio [27]) was 0% and the Activity (Danio rerio [28]) was 0%. The Activity (Danio rerio [29]) was 0%, the MIC (Candida albicans [30]) was 0.9 µg/mL and the Activity (Danio rerio [31]) was 100%. It also gave an Activity (Danio rerio [32]) of 100%, an MIC (Microsporum canis) of 1.56 µg/mL and an Activity (Danio rerio [33]) of 0%. For the same compound, the Activity (Danio rerio [34]) was 0%, the Activity (Danio rerio [35]) was 0% and the Activity (Candida albicans [36]) was “Active”. For the same compound, the Activity (Danio rerio [37]) was 56.67%, the MIC (Aspergillus fumigatus) was 6.25 µg/mL and the mortality at 96 h, 25 ug/ml [38] was 100%. For the same compound, the Activity (Danio rerio [39]) was 0%, the Activity (Danio rerio [40]) was 0% and the MBEC (Pichia kudriavzevii [41]) was 250 µg/mL. It also gave an Activity (Danio rerio [42]) of 6.67% and an Activity (Danio rerio [43]) of 0%.
